In one assay the target is T1, human mGluR3 (Homo sapiens, UniProt Q14832).
T1 construct: expressed in transfected cells; host or cells: RGT cells
Description: [3H]LY341495 displacement binding, mGlu3. Conditions: displacement of [3H]LY341495; receptors expressed in RGT cells; read-out: Ki (nM) ± SEM mGlu3, effects on [3H]LY341495 binding. How it is done:
(§1) To study the ability to affect receptor binding of compounds of the present invention in comparison to compounds of U.S. Pat. No. 5,958,960, displacement of a high affinity mGluR2 antagonist radioligand [^3H]LY341495 from recombinant human mGluR2 and human mGluR3 receptors expressed in RGT cells was determined.
(In general: Loss of bound radioactivity is the signal in a displacement assay; it reports binding, not function.)

In assay [1] the target is T2, recombinant mGlu2 receptors (Homo sapiens, UniProt Q14416).
T2 construct: expressed in transfected cells
Description: forskolin-stimulated cAMP accumulation in cells expressing mGlu2. The format is cell-based. Particulars: for EC50: agonist: reduces cAMP accumulation to 50% of the controls, read-out: EC50 (nM) ± SEM mGlu2, forskolin-stimulated cAMP accumulation; for IC50: antagonist: blocks agonist induced decrease in forskolin-stimulated cAMP, read-out: IC50 (nM) ± SEM mGlu2, forskolin-stimulated cAMP accumulation. How it is done:
(§2) To study the functional effect of compounds of the present invention in comparison to compounds of U.S. Pat. No. 5,958,960, forskolin stimulated c-AMP production in cells expressing recombinant mGlu2 and mGlu3 receptors was determined. As mGlu2 and mGlu3 receptors are negatively coupled to adenyl cyclase, activity of an agonist decreases forskolin-stimulated accumulation of cyclic adenosine monophosphate (cAMP) and is reported as the concentration necessary to reduce C-AMP accumulation to 50% of the controls (EC50, nM). The activity of an anatgonist blocks the agonist induced decrease in forskolin-stimulated accumulation of cyclic adenosine monophosphate (cAMP) and is reported as the concentration necessary to inhibit the reduction of C-AMP accumulation to 50% of the controls (IC50, nM).
For orientation: Changes in cAMP serve as a functional read-out for many G protein-coupled receptors.

A further assay concerns the target T3, recombinant human mGluR2 (Homo sapiens, UniProt Q14416).
T3 construct: expressed in transfected cells; host or cells: RGT cells
Description: [3H]LY341495 displacement binding, mGlu2. Conditions: displacement of [3H]LY341495; receptors expressed in RGT cells; read-out: Ki (nM) ± SEM mGlu2, effects on [3H]LY341495 binding. How it is done: as §1

For assay [2], the target named is T4, recombinant mGlu3 receptors (Homo sapiens, UniProt Q14832).
T4 construct: expressed in transfected cells
Description: forskolin-stimulated cAMP accumulation in cells expressing mGlu3. The class given is cell-based. Particulars: for EC50: agonist: reduces cAMP accumulation to 50% of the controls, read-out: EC50 (nM) ± SEM mGlu3, forskolin-stimulated cAMP accumulation; for IC50: antagonist: blocks agonist induced decrease in forskolin-stimulated cAMP, read-out: IC50 (nM) ± SEM mGlu3, forskolin-stimulated cAMP accumulation. How it is done: as §2

T3 sequence (Q14416 19-872): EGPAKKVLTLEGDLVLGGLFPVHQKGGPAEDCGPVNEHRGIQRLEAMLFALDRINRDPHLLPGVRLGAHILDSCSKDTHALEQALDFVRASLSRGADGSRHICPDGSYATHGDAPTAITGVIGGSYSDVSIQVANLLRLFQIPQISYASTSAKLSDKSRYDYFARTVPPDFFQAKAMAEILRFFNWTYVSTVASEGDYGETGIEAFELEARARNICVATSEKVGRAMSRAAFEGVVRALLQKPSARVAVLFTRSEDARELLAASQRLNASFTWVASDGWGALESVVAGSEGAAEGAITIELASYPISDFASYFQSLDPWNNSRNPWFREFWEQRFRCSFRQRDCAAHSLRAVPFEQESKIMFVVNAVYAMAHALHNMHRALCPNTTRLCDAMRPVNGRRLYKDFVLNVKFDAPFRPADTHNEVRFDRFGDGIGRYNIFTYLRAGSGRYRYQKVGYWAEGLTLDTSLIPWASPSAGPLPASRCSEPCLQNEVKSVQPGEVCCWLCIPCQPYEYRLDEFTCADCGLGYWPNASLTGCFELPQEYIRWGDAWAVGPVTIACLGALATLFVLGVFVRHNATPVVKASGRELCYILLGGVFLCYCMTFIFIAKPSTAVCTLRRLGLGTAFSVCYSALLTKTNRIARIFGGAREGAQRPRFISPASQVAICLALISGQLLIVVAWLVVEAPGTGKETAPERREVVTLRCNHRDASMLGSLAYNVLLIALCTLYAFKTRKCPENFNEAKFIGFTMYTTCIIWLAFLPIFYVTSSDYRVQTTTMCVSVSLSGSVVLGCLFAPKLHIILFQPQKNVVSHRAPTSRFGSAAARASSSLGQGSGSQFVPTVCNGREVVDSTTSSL
T2 sequence (Q14416 19-872): as above
T4 sequence (Q14832 23-879): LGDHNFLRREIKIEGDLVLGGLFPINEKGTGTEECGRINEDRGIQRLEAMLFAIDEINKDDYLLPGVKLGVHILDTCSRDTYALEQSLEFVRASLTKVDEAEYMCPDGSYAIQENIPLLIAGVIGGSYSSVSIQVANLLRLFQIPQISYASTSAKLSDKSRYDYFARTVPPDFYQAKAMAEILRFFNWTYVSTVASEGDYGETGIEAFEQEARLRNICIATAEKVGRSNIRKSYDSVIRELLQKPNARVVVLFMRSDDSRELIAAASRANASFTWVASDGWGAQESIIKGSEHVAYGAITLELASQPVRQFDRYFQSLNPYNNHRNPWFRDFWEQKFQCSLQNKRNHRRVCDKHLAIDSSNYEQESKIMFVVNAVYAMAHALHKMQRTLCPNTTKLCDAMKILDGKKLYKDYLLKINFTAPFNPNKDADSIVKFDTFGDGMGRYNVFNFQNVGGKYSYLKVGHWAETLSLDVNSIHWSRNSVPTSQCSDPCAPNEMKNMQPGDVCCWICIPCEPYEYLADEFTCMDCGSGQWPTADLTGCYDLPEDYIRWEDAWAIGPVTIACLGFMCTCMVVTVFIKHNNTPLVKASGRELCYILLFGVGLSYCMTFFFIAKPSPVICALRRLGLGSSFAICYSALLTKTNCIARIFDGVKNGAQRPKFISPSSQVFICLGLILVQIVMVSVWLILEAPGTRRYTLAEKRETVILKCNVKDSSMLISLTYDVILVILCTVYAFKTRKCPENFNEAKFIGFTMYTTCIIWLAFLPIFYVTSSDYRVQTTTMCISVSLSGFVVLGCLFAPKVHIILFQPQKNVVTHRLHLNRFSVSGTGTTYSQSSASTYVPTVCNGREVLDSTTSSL
T1 sequence (Q14832 23-879): as above

One may read the Ki as a measure of affinity in units of concentration, obtained from inhibition or displacement. A word on the EC50: it is the concentration giving half of the maximal effect. As for `CNC(=O)N[C@H]1C[C@@](N)(C(=O)O)[C@@H]2[C@@H](C(=O)O)[C@@H]21` (relative stereo) [Example 20, (1S*, 2S*, 4S*, 5R*, 6S*) 2-Amino-4-(3-methyl-ureido)-bicyclo[3.1.0]hexane-2,6-dicarboxylic acid], the Ki is 23 ± 2.6 nM on human mGluR3 and 254 ± 10.7 nM on recombinant human mGluR2. Further, the EC50 was 426 ± 41.8 nM in assay [1] and 41.1 ± 11.1 nM in assay [2].
The IC50 is the concentration needed to halve the response being measured. For the compound `N[C@@]1(C(=O)O)C[C@@H](NC(=O)c2ccccc2)[C@H]2[C@H](C(=O)O)[C@H]21` (relative stereo) [1S*, 2S*, 4R*, 5R*, 6S*) 2-Amino-4-benzoylaminobicyclo[3.1.0]hexane-2,6-dicarboxylic acid], the Ki on human mGluR3 is 393 ± 17.8 nM; at recombinant human mGluR2, 607 ± 10.2 nM. The IC50 was determined as 4060 nM in assay [1] and 9520 nM in assay [2].
The corresponding values for `CNC(=O)N[C@@H]1C[C@@](N)(C(=O)O)[C@@H]2[C@@H](C(=O)O)[C@@H]21` (relative stereo) [(1S*, 2S*, 4R*, 5R*, 6S*) 2-Amino-4-(3-methylureido)bicyclo[3.1.0]hexane-2,6-dicarboxylic acid] are 408 ± 25.4 nM, 468 ± 29 nM, 3220 nM and 6270 nM.
For `CC(=O)N[C@@H]1C[C@@](N)(C(=O)O)[C@@H]2[C@@H](C(=O)O)[C@@H]21` (relative stereo) [(1S*, 2S*, 4R*, 5R*, 6S*) 4-Acetylamino-2-aminobicyclo[3.1.0]hexane-2,6-dicarboxylic acid], in that order: 399 ± 67.8 nM, 638 ± 59.6 nM, 4300 nM and 11100 nM.
`CC(=O)N[C@H]1C[C@@](N)(C(=O)O)[C@@H]2[C@@H](C(=O)O)[C@@H]21` (relative stereo) [Example 23, (1S*, 2S*, 4S*, 5R*, 6S*) 4-Acetylamino-2-amino-bicyclo[3.1.0]hexane-2,6-dicarboxylic acid]: the Ki at human mGluR3 turned out to be 214 ± 14.6 nM; at recombinant human mGluR2, 772 ± 38.8 nM. The concentration for a half-maximal effect (EC50) in assay [1] is 1350 nM; in assay [2] it was 1730 nM.
Consider `N[C@@]1(C(=O)O)C[C@H](NC(=O)c2ccccc2)[C@H]2[C@H](C(=O)O)[C@H]21` (relative stereo) [Example 24, (1S*, 2S*, 4S*, 5R*, 6S*) 2-Amino-4-benzoylamino-bicyclo[3.1.0]hexane-2,6-dicarboxylic acid], for which the values for the inhibition constant Ki on human mGluR3 and at recombinant human mGluR2 were 9.54 ± 0.73 nM and 511 ± 89 nM, respectively. Further, the half-maximal effective concentration (EC50) turned out to be 60.7 ± 1.03 nM in assay [1] and 18.1 ± 2.87 nM in assay [2].

For the origin of these results see patent US20040116489A1, “Synthetic excitatory amino acids” (priority 2003, published 2004).
